Measurements as given in publication PMC2009863, “Pharmacokinetic considerations in testing hypoxic cell radiosensitizers in mouse tumours” (British Journal of Cancer, 1979).
Several values for one entry are separate records, joined by “and”; a condition that tells them apart may be missing. Identical values can stand only once. Like-named read-outs stand apart in the source and are kept apart here.

Key:
[1] = cited from earlier work; for tumour concentration as % of corresponding plasma concentration: clinical studies, HPLC, after MIS administration, ref Wiltshire et al.
[2] = system: V-79 cells; details: cited from earlier work
[3] = Whole blood MIS and Ro-05-9963 by HPLC after MIS in control, sham-operated and kidney-ligated mice; details: for half-life: mouse, in vivo, 5 mmol/kg, plasma half-life
Description: (§1) Several groups are now pursuing such a goal (Adams, 1977; Brown et al., 1978; Wardman, 1977). […] Specifically the two ques- tions were: (a) How much does the plasma half-life affect the peak plasma level? (b) How much does the plasma half-life affect the tumour/plasma ratio of drug concentrations? MATERIALS AND METHODS A description of the procedures for implanta- tion of tumours, and irradiation and assay of the viability of the tumour cells has been published previously (Brown, 1975). Brieflv, the EMT6/St/lu tumour was transplanted into 3-month-old, syngeneic BALB/c female mice, weighing 20-25 g, and irradiated at a diameter of 6-7 mm. Immediately after irradiation the tumours were removed and minced. The only modification was that the single-cell suspensions were prepared by a 30 min disaggregation using an enzyme "'cock- tail" of 0-05% pronase, 0.02% DNAase and 21 0 02% collagenase (Brown et al., in prepara- tion). Cell viability was assayed by plating appropriate dilutions of the tumour cells into Waymouth's medium containing 15% foetal calf serum in polystyrene Petri dishes, and counting colonies 13 days later. […] Bilateral kidney ligation was performed on anaesthetized mice by exteriorizing the kidneys through a 1 cm incision in the skin and abdominal wall and tying a ligature around the renal artery and vein at the renal pelvis. The abdominal incision, which was adjoining and parallel to the line of attach- ment of the abdominal wall with the dorsal muscles, was then closed tightly with 4 or 5 stitches, and the skin incision closed with metal clips. The sham operation was identical in all respects except for ligation of the renal artery and vein. […] Plasma (or whole blood) and tumour levels of 2-nitroimidazoles were determined in different ways in the two laboratories rep- resented. In the first method, represented in Tables I and II and Fig. 1, tumour and plasma levels were determined on killing of individual mice, and were measured spectrophotomet- rically using UV absorption at 318 nm. This measures the total concentration of all 2-nitroimidazoles in the sample. The pro- cedure used was a modification of that described by Chapman et al. (1974). To measure plasma levels, 0 4 ml of plasma (collected from heparinized whole blood by cardiac puncture at the time of killing) was added to 2-6 nil absolute ethanol. The mixture was vortexed for 1 min, allowed to stand for 10 min and then centrifuged for 5 min at high speed (1000 g). Tumour levels were determined by preparing a 20% (w/v) homogenate of tumour in distilled water, and adding a 0 4 ml aliquot of homogenate to 2-6 ml absolute ethanol as described above. […] At appropriate times after MIS administration, serial blood samples were taken from the tail of the same mouse. Duplicate 5 /A samples were collected in Microcap pipettes (Drummond Scientific Company), mixed with 45 µl water and stored at -20?C. Finally (usually at 10-12-5 h) the mice were bled by cardiac puncture and the undiluted heparinized whole blood was stored at -20?C.

[4] = Plasma and tumour levels of total 2-nitroimidazoles, UV spectrophotometric assay at 318 nm, EMT6 tumour-bearing mice, normal or bilateral kidney ligation; details: for Plasma concn. / Tumour concn.: Table I, 5 mmol/kg i.p.; for Plasma concn. / Tumour concn. / Plasma concentration / Tumour concentration: individual mice; for Plasma concentration, Mean / Tumour concentration, Mean / Plasma concentration / Tumour concentration: Table II, 5 mmol/kg
Description: as §1

[5] = parameters: method as in Adams et al., 1976; Brown et al., 1978; details: ref Adams et al., 1976; Brown et al., 1978; cited from earlier work
[6] = cited from earlier work
[7] = Description: Several groups are now pursuing such a goal (Adams, 1977; Brown et al., 1978; Wardman, 1977). […] Specifically the two ques- tions were: (a) How much does the plasma half-life affect the peak plasma level? (b) How much does the plasma half-life affect the tumour/plasma ratio of drug concentrations? MATERIALS AND METHODS A description of the procedures for implanta- tion of tumours, and irradiation and assay of the viability of the tumour cells has been published previously (Brown, 1975). Brieflv, the EMT6/St/lu tumour was transplanted into 3-month-old, syngeneic BALB/c female mice, weighing 20-25 g, and irradiated at a diameter of 6-7 mm. Immediately after irradiation the tumours were removed and minced. The only modification was that the single-cell suspensions were prepared by a 30 min disaggregation using an enzyme "'cock- tail" of 0-05% pronase, 0.02% DNAase and 21 0 02% collagenase (Brown et al., in prepara- tion). Cell viability was assayed by plating appropriate dilutions of the tumour cells into Waymouth's medium containing 15% foetal calf serum in polystyrene Petri dishes, and counting colonies 13 days later. […] Bilateral kidney ligation was performed on anaesthetized mice by exteriorizing the kidneys through a 1 cm incision in the skin and abdominal wall and tying a ligature around the renal artery and vein at the renal pelvis. […] Plasma (or whole blood) and tumour levels of 2-nitroimidazoles were determined in different ways in the two laboratories rep- resented. In the first method, represented in Tables I and II and Fig. 1, tumour and plasma levels were determined on killing of individual mice, and were measured spectrophotomet- rically using UV absorption at 318 nm. […] Tumour levels were determined by preparing a 20% (w/v) homogenate of tumour in distilled water, and adding a 0 4 ml aliquot of homogenate to 2-6 ml absolute ethanol as described above. […]
[8] = Acute toxicity LD50/2d of MIS and Ro-05-9963; details: mouse, in vivo
Description: Several groups are now pursuing such a goal (Adams, 1977; Brown et al., 1978; Wardman, 1977). […] Specifically the two ques- tions were: (a) How much does the plasma half-life affect the peak plasma level? (b) How much does the plasma half-life affect the tumour/plasma ratio of drug concentrations? MATERIALS AND METHODS A description of the procedures for implanta- tion of tumours, and irradiation and assay of the viability of the tumour cells has been published previously (Brown, 1975). Brieflv, the EMT6/St/lu tumour was transplanted into 3-month-old, syngeneic BALB/c female mice, weighing 20-25 g, and irradiated at a diameter of 6-7 mm. Immediately after irradiation the tumours were removed and minced. […] Plasma (or whole blood) and tumour levels of 2-nitroimidazoles were determined in different ways in the two laboratories rep- resented. In the first method, represented in Tables I and II and Fig. 1, tumour and plasma levels were determined on killing of individual mice, and were measured spectrophotomet- rically using UV absorption at 318 nm. […] Tumour levels were determined by preparing a 20% (w/v) homogenate of tumour in distilled water, and adding a 0 4 ml aliquot of homogenate to 2-6 ml absolute ethanol as described above. […]

[9] = BKL Yes, 38 min after injection

O=[N+]([O-])c1nccn1CC(O)CO (stereo not drawn) [Ro-05-9963, 1-(2-nitroimidazol-1-yl)-2,3-pro-pandiol]
tumour concentration as % of corresponding plasma concentration ([1]; 1978, Workman et al., 1978b): 50-70% | radiosensitizing effectiveness compared with MIS ([2]; V-79 cells in vitro, ref Adams et al. (1976)): slightly less effective | radiosensitizing effectiveness compared with MIS ([2]; in vitro, ref Flockhart et al. (1968b)): slightly more so | proportion of Ro-05-9963 to total non-conjugated 2-nitroimidazoles ([3]; 38 min after MIS injection, control and nephrectomized mice): 5% | proportion of Ro-05-9963 to total non-conjugated 2-nitroimidazoles ([3]; 6.5 h after MIS injection, nephrectomized mice): 22% | proportion of Ro-05-9963 to total non-conjugated 2-nitroimidazoles ([3]; 6.5 h after MIS injection, normal mice): 24% | tumour levels lower than plasma concentration ([4]; EMT6 tumour): 30-40% | plasma half-life ([4]; Fig. 1, normal BALB/c mice, equal peak plasma levels: MIS 5 mmol/kg, Ro-05-9963 10 mmol/kg i.p.): 33 min | Plasma concn. ([4]; 30 min after inj.): 2 to 8 mM and 2 to 4 mM and 2 to 6 mM | Tumour concn. ([4]; 30 min after inj.): 0-77 mM and 1.5 mM and 1-1 mM | Plasma concn. ([4]; 37.5 min after inj.): 2-4 mM (2×) and 2-5 mM and 0-88 mM | Tumour concn. ([4]; 37.5 min after inj.): 2-4 mM and 1-7 mM (2×) | Plasma concn. ([4]; 45 min after inj.): 1 to 5 mM and 0 to 38 mM and 1 to 2 mM | Tumour concn. ([4]; 45 min after inj.): 0 to 74 mM and 0 to 76 mM and 0 to 25 mM | Plasma concentration, Mean ([4]; BKL No, 38 min after injection): 1 to 4 mM | Tumour concentration, Mean ([4]; BKL No, 38 min after injection): 1-1 mM | Plasma concentration, Mean ([4]; BKL Yes, 6 h after injection): 4 to 8 mM | Tumour concentration, Mean ([4]; BKL Yes, 6 h after injection): 2 to 8 mM | Plasma concentration ([4]; BKL No, 38 min after injection): 0 to 42 mM and 0 to 51 mM and 1 to 93 mM and 2 to 16 mM and 2 to 36 mM and 1 to 27 mM | Tumour concentration ([4]; BKL No, 38 min after injection): 0 to 24 mM and 0 to 25 mM and 2 to 35 mM and 1 to 30 mM and 1 to 58 mM and 0 to 90 mM | Plasma concentration [4, 9]: 4.7 mM (2×) and 5.4 mM and 4-9 mM | Tumour concentration [4, 9]: 4.3 mM and 2 to 4 mM and 2 to 8 mM and 1 to 6 mM | Plasma concentration ([4]; BKL Yes, 6 h after injection): 5.9 mM and 4 to 6 mM and 4 to 7 mM | Tumour concentration ([4]; BKL Yes, 6 h after injection): 2 to 3 mM and 2 to 9 mM and 3 to 7 mM | plasma and tumour concentrations less than those of MIS, factor ([4]; equimolar injected doses, normal mice): ≥ 2 | lipophilicity compared with MIS [5]: considerably less lipophilic

COCC(O)Cn1ccnc1[N+](=O)[O-] (stereo not drawn) [MIS, 1-(2-nitroimidazol-1-yl)-3-methoxypropan-2-ol]
tumour concentration as % of corresponding plasma concentration ([1]; 1978, Workman et al., 1978b): 50-70% | tumour concentration as % of plasma levels ([1]; human tumours, ref Gray et al., 1976, Dische et al., 1977, Urtasun et al.): 42-107% | half-life in man ([1]; plasma, ref Foster et al., 1975, Dische et al., 1977, Wiltshire et al., 1978, Workman et al., 1978b): ~12 h | uptake of (2-14C) MIS as % of plasma concentration ([6]; MT mouse tumour and some normal mouse tissues, particularly at less than 6 h, ref Flockhart et al. (1978c)): less than 100% | tumour concentration as % of that in blood ([6]; different mouse tumours, ref McNally et al. (1978)): 18-72% | rectal temperature below uninjected mice ([7]; 9 h after MIS injection, controls): ≤ 3 °C | rectal temperature below the uninjected level ([7]; 9 h after MIS injection, kidney-ligated mice): 7 °C | rectal temperature drop ([7]; first 5 h after MIS injection, all 3 groups): 5.0 °C | half-life ([3]; BALB/c, bilateral kidney ligation before injection): 600 to 660 min | half-life ([3]; BALB/c, normal mice): ~120 min | half-life ([3]; ip, bilateral kidney ligation before injection): 600 min | glucuronide conjugates of MIS and Ro-05-9963 in plasma ([3]; normal and sham-operated mice after MIS): not found | LD50 at 2 d [8]: 1830 mg/kg
